The values that follow are results of earlier work, collected in US20240115695A1, “Method of Obtaining Betulin as an Adjuvant in a Vaccine Against Coronavirus SARS-COV-2” (BETUVAKS LIMITED LIABILITY COMPANY, priority 2020, published 2024).

The conditions of series [1]: in vivo.

For `C1CCOC1` [THF, tetrahydrofuran], in series [1], the 50% lethal dose (LD50) (in general, the dose at which mortality reaches 50%) is 2300 mg/kg and the MPC was 100 mg/m^3.

On to `C=C(C)[C@@H]1CC[C@]2(CO)CC[C@]3(C)[C@H](CC[C@@H]4[C@@]5(C)CC[C@H](O)C(C)(C)[C@@H]5CC[C@]43C)[C@@H]12` [betulin], for which the solubility of betulin entry is “less than 1 μg/mL”.
